≈ marks a conversion by molar mass, not a printed value. Like-named read-outs stand apart in the source and are kept apart here.
Experiments:
[1] = aminoglycosides; cited from earlier work
[2] = tested on: P. acnes laboratory strain ATCC 6919; assay: P. acnes CFU assay, laboratory strain; assay type: cell-based, Propionibacterium acnes
[3] = tested on: MCP-1, MDC, IP-10 and IL-12p40 in human monocytes; assay: chemokine/cytokine gene expression in P. acnes-stimulated monocytes (real-time PCR); assay type: cell-based; conditions: 24 hrs co-treatment
Description: Peripheral blood mononuclear cells (PBMCs) were isolated from whole blood of normal healthy donors as approved by the Institutional Review Board at UCLA using Ficoll-Paque gradients (GE Healthcare, Piscataway, N.J.) and plated onto six-well tissue culture plates (20×10^6-30×10^6 per well) for 2 hours in RPMI 1640 medium (Invitrogen Life Technologies, Carlsbad, Calif.) supplemented with 1% fetal calf serum (Omega Scientific, Tarzana, Calif.). Nonadherent cells were removed by rigorously washing three times with RPMI. Adherent monocytes were stimulated (co-treated) with media or P. acnes in the presence of tobramycin or Pentobra in 10% fetal calf serum. P. acnes was used at an MOI of 0.5 and cells were cultured for 24 hours at 37° C.
Monocytes were stimulated with media or P. acnes in the presence of tobramycin or Pentobra. Total RNA was isolated using Trizol reagent (Invitrogen, Carlsbad, Calif.) following manufacturer's protocol and treated with RNase-free DNase. RNA concentration and quality were determined by spectrophotometry. RNA samples were reverse-transcribed to cDNA using iScript cDNA synthesis kit (Bio-Rad, Hercules, Calif.). Reactions were done at 25° C. for 5 minutes, 42° C. for 30 minutes and 85° C. for 5 minutes. Real-time PCR was applied using iQ SYBR Green supermix (Bio-Rad). Forty cycles were carried out at 95° C. for 5 minutes, then 95° C. for 10 seconds, 55° C. for 20 seconds, 72° C. for 20 seconds. GAPDH was used as a control. Gene expression level was quantified by the comparative method 2-ΔΔCT.
Monocytes were cultured and evaluated for cytokine and chemokine expression by ELISA and real time PCR after 24 hrs.

[4] = tested on: Vancomycin-Resistant Enterococci (VRE); assay: microbe, parasite or virus in culture; assay type: cell-based; conditions: Enterococcus, read-out: MIC
Source text: (§1) Pentobra was screened against a broad panel of microbial pathogens, including strains of E. coli, MRSA, Klebsiella (Kleb), Acinetobacter (AcB), Vancomycin-Sensitive Enterococci (VSE) and Vancomycin-Resistant Enterococci (VRE), and specifically including E. faecalis samples. […] The experimenter reported the minimum inhibitory concentration (MIC) in mass units per unit volume (μg/mL) for each compound, and MIC data were converted into molar concentrations (μM) due to the large difference between the molecular weight of tobramycin (467.5 g/mol) and Pentobra (2277 g/mol).

[5] = tested on: Klebsiella (Kleb); assay: microbe, parasite or virus in culture; assay type: cell-based; conditions: Klebsiella; isolate Kleb, W6921701-1; read-out: MIC
Source text: as §1

[6] = tested on: MRSA; assay: microbe, parasite or virus in culture; assay type: cell-based; conditions: isolate MRSA
Source text: as §1

[7] = tested on: Acinetobacter (AcB); assay: microbe, parasite or virus in culture; assay type: cell-based; conditions: Acinetobacter; isolate AcB, PM1434; read-out: MIC
Source text: as §1

[8] = tested on: E. coli; assay: microbe, parasite or virus in culture; assay type: cell-based; conditions: Escherichia coli
Source text: as §1

[9] = tested on: S. aureus S113 persister cells; assay: persister cell plate killing assay; assay type: cell-based, Staphylococcus aureus; conditions: 1.5 h
Description: Procedure for preparing S. aureus SA113 and E. coli Dh5α persister cells were based on previous protocols. Cells from freshly streaked agar plates were inoculated in 1 mL TSB and incubated 16 h at 37° C. in a shaker incubator to obtain stationary phase cultures. Non-persister cells were eliminated by adding ampicillin to a final concentration of 100 μg/mL, followed by 3 h incubation at 37° C.
S. aureus cells were diluted 10× into 10 mM Pipes at pH 7.4 buffer for a bacteria stock solution of roughly 10^9 CFU/mL. 20 μL S. aureus suspension was introduced into 180 μL Pipes buffer containing various concentrations of antibiotic (Pentobra, tobramycin) in 96 well plates for a total of ˜10^8 CFU/well. The plates were sealed with parafilm, loaded onto microplate shakers and placed in 37° C. incubator for 1.5 h. After incubation, 10-fold serial dilutions were made in Pipes buffer. Half of each dilution (100 μL) was spotted onto LB agar plates and incubated overnight at 37° C. to yield visible colonies. The S. aureus persister assays were performed in triplicate. The data shown are averages from two independent trials and were representative of the three assays.
The bactericidal effects of Pentobra against persistent bacteria were investigated with plate killing assays. […]

[10] = tested on: Vancomycin-Sensitive Enterococci (VSE); assay: organism not typed; assay type: cell-based; conditions: read-out: MIC
Source text: as §1

[11] = tested on: E. coli; assay: antimicrobial activity (MIC) of P-L-A conjugates; assay type: cell-based
[12] = tested on: S. aureus; assay: antimicrobial activity (MIC) of P-L-A conjugates; assay type: cell-based
[13] = tested on: P. acnes clinical isolates; assay: P. acnes CFU assay, clinical isolates; assay type: cell-based, Propionibacterium acnes

In the case of `NC[C@H]1O[C@H](O[C@H]2[C@H](O)[C@@H](O[C@H]3O[C@H](CO)[C@@H](O)[C@H](N)[C@H]3O)[C@H](N)C[C@@H]2N)[C@H](N)C[C@@H]1O` [tobramycin], the “octanol→water partition coefficient Log P” value [1] is listed as −3.41, the “killing activity” value [2] is listed as “not strongly bactericidal” and the “reduction in CFU” value ([2]; 52 μM, 3 h) is listed as “less than ten”. The “inhibition of IL-12p40 gene expression” value [3] was “little to no inhibition”, the “inhibition of MCP-1 expression, comparison of the antibiotics” value [3] was “more effective” and the “P. acnes-induced IP-10 expression” value ([3]; p<0.001) was “completely abrogated”. It also gave an MIC ([4]; VRE, isolate F6541102, VRE) greater than 274 µM, an MIC ([4]; VRE, isolate H6926031, VRE*) of 68 µM (≈ 31.8 µg/mL) and an MIC ([4]; VRE, isolate M6865034, VRE) greater than 274 µM. For the same molecule, the MIC ([4]; VRE, isolate S3899836, VRE^? (second entry)) was greater than 274 µM, the MIC ([4]; VRE, isolate VRE, 24670) was greater than 274 µM and the MIC ([4]; VRE, isolate VRE, S3899836) was greater than 274 µM. For the same molecule, the MIC ([4]; isolate 24670, VRE^? (second entry)) was greater than 274 µM, the MIC [5] was 68 µM (≈ 31.8 µg/mL) and the MIC ([6]; Staphylococcus aureus, F2806774, read-out: MIC) was greater than 274 µM. The MIC ([6]; H2867813) was greater than 274 µM, the MIC [7] was 34 µM (≈ 15.9 µg/mL) and the MIC ([8]; ATCC25922, isolate ATCC 25922, Ecoli (second entry), read-out: MIC) was 2 µM (≈ 0.935 µg/mL). The MIC ([8]; isolate ATCC Ecoli, 25922 (first entry)) was 2 µM (≈ 0.935 µg/mL), the MIC ([8]; isolate Ecoli,YD461, read-out: MIC) was 34 µM (≈ 15.9 µg/mL) and the “reduction in CFU” value ([9]; range of tested concentrations) was “less than one”. For the same molecule, the “killing activity against persister cells” value ([9]; varying concentrations) was “little susceptibility”, the MIC ([10]; isolate S4895552, VSE, LZD-R) was greater than 274 µM and the MIC ([10]; isolate W7171143,VSE) was 68 µM (≈ 31.8 µg/mL). For the same molecule, the MIC ([10]; isolate W7214342,VSE) was greater than 274 µM, the MIC ([10]; isolate X4540299, VSE) was 34 µM (≈ 15.9 µg/mL) and the “MIC (μM) E. coli (mid-log)” value [11] was 6.25 μM. The “MIC (μM) S. aureus (mid-log)” value [12] was 3.12 μM, the “antimicrobial activity” value ([13]; isolates HL063PA2, HL110PA1, HL110PA4) was “did not exhibit significant antimicrobial activity” and the “bactericidal activity” value ([13]; strain HL005PA1) was “strongly bactericidal”. For the same molecule, the “activity compared with Pentobra” value ([13]; strains HL053PA2 and HL043PA1) was “significantly less active”.

Reference: patent US20170348337A1, “MULTIFUNCTIONAL MEMBRANE-ACTIVE AMINOGLYCOSIDE-PEPTIDE CONJUGATES” (priority 2014, published 2017)
